Assay results taken from patent US20220031695A1, “SHP2 INHIBITOR COMPOSITIONS FOR USE IN TREATING CANCER” (Revolution Medicines, Inc., priority 2018, published 2022).
pIC50: −log10 of the molar value.

Experiments:
[1] = system: ROS1 fusion-positive NSCLC; conditions: patients harboring ROS1 fusion-positive NSCLC; cited from earlier work
[2] = target: T1, SHP2 (Homo sapiens, UniProt Q06124); test: SHP2 allosteric inhibition assay (DiFMUP prompt fluorescence); type: biochemical; conditions: 0.2 nM SHP2, 0.5 μM activating peptide, DiFMUP substrate
T1 sequence (Q06124 1-593): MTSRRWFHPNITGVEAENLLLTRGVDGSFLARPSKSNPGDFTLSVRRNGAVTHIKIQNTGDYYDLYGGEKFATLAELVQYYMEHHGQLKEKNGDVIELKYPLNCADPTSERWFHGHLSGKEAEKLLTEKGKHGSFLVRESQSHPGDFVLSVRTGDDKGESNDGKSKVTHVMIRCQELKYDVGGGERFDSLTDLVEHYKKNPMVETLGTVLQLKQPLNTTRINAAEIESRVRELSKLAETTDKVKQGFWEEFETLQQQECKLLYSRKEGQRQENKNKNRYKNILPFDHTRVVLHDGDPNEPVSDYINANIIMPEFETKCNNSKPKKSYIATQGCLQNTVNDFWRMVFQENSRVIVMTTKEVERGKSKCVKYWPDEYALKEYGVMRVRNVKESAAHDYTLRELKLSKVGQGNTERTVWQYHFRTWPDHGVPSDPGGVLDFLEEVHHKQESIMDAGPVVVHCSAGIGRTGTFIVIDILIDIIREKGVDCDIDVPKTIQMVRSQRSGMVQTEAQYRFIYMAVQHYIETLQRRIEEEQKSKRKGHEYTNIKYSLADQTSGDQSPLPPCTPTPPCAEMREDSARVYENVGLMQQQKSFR
Text: Without wishing to be bound by theory, SHP is allosterically activated through binding of bis-tyrosyl-phosphorylated peptides to its Src Homology 2 (SH2) domains. The latter activation step leads to the release of the auto-inhibitory interface of SHP2, which in turn renders the SHP2 protein tyrosine phosphatase (PTP) active and available for substrate recognition and reaction catalysis. The catalytic activity of SHP2 was monitored using the surrogate substrate DiFMUP in a prompt fluorescence assay format.
The phosphatase reactions were performed at room temperature in 96-well black polystyrene plate, flat bottom, non-binding surface (Corning, Cat #3650) using a final reaction volume of 100 μL and the following assay buffer conditions: 50 mM HEPES, pH 7.2, 100 mM NaCl, 0.5 mM EDTA, 0.05% P-20, 1 mM DTT.
The inhibition of SHP2 by RMC-3943, RMC-4550, and Compound C was monitored using an assay in which 0.2 nM of SHP2 was incubated with 0.5 μM of Activating Peptide 1 (sequence: H2N-LN(pY)IDLDLV(dPEG8)LST(pY)ASINFQK-amide) (SEQ ID NO: 1) or Activating Peptide 2 (sequence: H2N-LN(pY)AQLWHA(dPEG8)LTI(pY)ATIRRF-amide) (SEQ ID NO: 2). After 30-60 minutes incubation at 25° C., the surrogate substrate DiFMUP (Invitrogen, Cat #D6567) was added to the reaction and activity was determined by a kinetic read using a microplate reader (Envision, Perkin-Elmer or Spectramax M5, Molecular Devices). […]

| pIC50 [2] | SMILES | progression-free survival [1] [month] |
| --- | --- | --- |
|  | C[C@@H](Oc1cc(-c2cnn(C3CCNCC3)c2)cnc1N)c1c(Cl)ccc(F)c1Cl [crizotinib] | 19 |
| 8.66 | Nc1nc(N2CCC3(CCC[C@H]3N)CC2)cnc1Sc1ccnc(Cl)c1Cl [RMC-3943] |  |
